Source: the supplement of paper PMC10307832

Assays:
Assay in all cases: relative viability (nuclei count vs DMSO), 5 days (fraction); higher = more cells survive
GW-2580 + AZD7762 = compound: COC1=CC=C(C=C1)COC2=C(C=C(C=C2)CC3=CN=C(N=C3N)N)OC [GW-2580] + NC(=O)Nc1cc(-c2cccc(F)c2)sc1C(=O)N[C@H]1CCCNC1 [AZD7762] (partner 0.2 µM)
Outline: (§1)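 Dosing by pin tool came one day after lung cancer cell lines were seeded in 1536-well plates, using either one drug or a fixed anchor-drug dose plus five library-drug doses (not always all listed) in √10 steps. After 5 days, nuclei were counted on 4× images. Relative viability is treated-well nuclei count divided by vehicle-well nuclei count, and values are medians of duplicate plates.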

Fedratinib + Phenformin = compound: Cc1cnc(Nc2ccc(OCCN3CCCC3)cc2)nc1Nc1cccc(S(=O)(=O)NC(C)(C)C)c1 [Fedratinib] + N=C(N)NC(=N)NCCc1ccccc1 [Phenformin] (partner 250 µM)
Outline: as §1

Fedratinib + Olaparib = compound: Cc1cnc(Nc2ccc(OCCN3CCCC3)cc2)nc1Nc1cccc(S(=O)(=O)NC(C)(C)C)c1 [Fedratinib] + O=C(c1cc(Cc2n[nH]c(=O)c3ccccc23)ccc1F)N1CCN(C(=O)C2CC2)CC1 [Olaparib] (partner 8 µM)
Outline: as §1

GW-2580 + Trametinib = compound: COC1=CC=C(C=C1)COC2=C(C=C(C=C2)CC3=CN=C(N=C3N)N)OC [GW-2580] + CC(=O)Nc1cccc(-n2c(=O)n(C3CC3)c(=O)c3c(Nc4ccc(I)cc4F)n(C)c(=O)c(C)c32)c1 [Trametinib] (partner 0.02 µM)
Outline: as §1

GW-2580 + Luminespib = compound: COC1=CC=C(C=C1)COC2=C(C=C(C=C2)CC3=CN=C(N=C3N)N)OC [GW-2580] + CCNC(=O)c1noc(-c2cc(C(C)C)c(O)cc2O)c1-c1ccc(CN2CCOCC2)cc1 [Luminespib] (partner 0.01 µM)
Outline: as §1

| Cell Line | relative viability (GW-2580 + AZD7762; first compound 0.08 µM) | relative viability (GW-2580 + AZD7762; first compound 0.8 µM) | relative viability (GW-2580 + AZD7762; first compound 2.53 µM) | relative viability (GW-2580 + AZD7762; first compound 8 µM) | relative viability (Fedratinib + Phenformin; first compound 0.1 µM) | relative viability (Fedratinib + Phenformin; first compound 0.3162 µM) | relative viability (Fedratinib + Phenformin; first compound 1 µM) | relative viability (Fedratinib + Olaparib; first compound 0.1 µM) | relative viability (Fedratinib + Olaparib; first compound 0.3162 µM) | relative viability (Fedratinib + Olaparib; first compound 1 µM) | relative viability (GW-2580 + Trametinib; first compound 0.08 µM) | relative viability (GW-2580 + Trametinib; first compound 0.8 µM) | relative viability (GW-2580 + Trametinib; first compound 2.53 µM) | relative viability (GW-2580 + Trametinib; first compound 8 µM) | relative viability (GW-2580 + Luminespib; first compound 0.08 µM) | relative viability (GW-2580 + Luminespib; first compound 0.8 µM) | relative viability (GW-2580 + Luminespib; first compound 2.53 µM) | relative viability (GW-2580 + Luminespib; first compound 8 µM) |
| --- | --- | --- | --- | --- | --- | --- | --- | --- | --- | --- | --- | --- | --- | --- | --- | --- | --- | --- |
| HOP-62 | 0.664 | 0.74 | 0.571 | 0.424 | 0.682 | 0.601 | 0.631 | 0.712 | 0.352 | 0.518 | 0.406 | 0.412 | 0.359 | 0.378 | 1.02 | 1.04 | 0.91 | 0.917 |
| IA-LM | – | – | – | – | – | – | – | 0.829 | 0.751 | 0.819 | – | – | – | – | – | – | – | – |
| LC-2-ad | 0.866 | 0.948 | 0.826 | 0.873 | 0.595 | 0.624 | 0.528 | 0.709 | 0.701 | 0.724 | 0.883 | 0.995 | 0.923 | 0.816 | 1.03 | 1.07 | 1.12 | 1.02 |
| LCLC-97TM1 | 0.2 | 0.285 | 0.281 | 0.212 | 0.477 | 0.425 | 0.37 | 0.588 | 0.386 | 0.428 | 0.189 | 0.196 | 0.192 | 0.196 | 0.771 | 0.728 | 0.799 | 0.694 |
| LCLC-103H | 0.884 | 0.838 | 0.648 | 0.716 | 0.32 | 0.284 | 0.363 | 0.819 | 0.753 | 0.773 | 0.725 | 0.716 | 0.64 | 0.637 | 1.01 | 0.895 | 0.844 | 0.839 |
| LK-2 | 0.44 | 0.681 | 0.269 | 0.284 | 0.293 | 0.452 | 0.201 | 0.611 | 0.624 | 0.698 | 0.918 | 0.933 | 0.686 | 0.904 | 0.16 | 0.173 | 0.238 | 0.175 |
| LOU-NH91 | 0.862 | 0.677 | 0.743 | 0.794 | 0.689 | 0.899 | 0.733 | 0.847 | 0.941 | 0.91 | 0.796 | 0.857 | 0.738 | 0.827 | 0.413 | 0.34 | 0.319 | 0.356 |
| LU99A | 0.509 | 0.315 | 0.267 | 0.281 | 0.864 | 0.894 | 0.755 | 0.262 | 0.264 | 0.231 | 0.668 | 0.646 | 0.499 | 0.462 | 0.289 | 0.241 | 0.193 | 0.273 |
| LXF-289 | 1.17 | 1.2 | 1.07 | 1.06 | 0.503 | 0.488 | 0.517 | 1.11 | 1.01 | 0.994 | 0.724 | 0.708 | 0.688 | 0.651 | 0.719 | 0.732 | 0.684 | 0.616 |
| NCI-H520 | – | – | – | – | 0.431 | 0.564 | 0.399 | 0.306 | 0.347 | 0.29 | 0.736 | 0.606 | 0.608 | 0.539 | 0.224 | 0.202 | 0.196 | 0.274 |
| NCI-H661 | – | – | – | – | 0.269 | 0.287 | 0.304 | 0.713 | 0.77 | 0.748 | 0.678 | 0.566 | 0.516 | 0.504 | 0.978 | 0.996 | 0.931 | 0.704 |
| NCI-H1299 | – | – | – | – | – | – | – | 0.955 | 0.881 | 0.904 | – | – | – | – | – | – | – | – |
| NCI-H1563 | – | – | – | – | 0.658 | 0.693 | 0.637 | – | – | – | – | – | – | – | 0.546 | 0.522 | 0.484 | 0.545 |
| NCI-H1623 | – | – | – | – | 0.474 | 0.59 | 0.551 | – | – | – | – | – | – | – | 0.382 | 0.43 | 0.482 | 0.471 |
| NCI-H1648 | 0.713 | – | 0.778 | 0.583 | – | – | – | 0.655 | 0.59 | 0.691 | 0.416 | – | 0.405 | 0.439 | – | – | – | – |
| NCI-H1650 | – | – | – | – | – | 0.495 | 0.234 | 0.835 | 0.726 | 0.674 | 0.623 | 0.533 | 0.579 | 0.599 | 0.195 | 0.195 | 0.197 | 0.182 |
| NCI-H1703 | 0.115 | 0.128 | 0.122 | 0.108 | – | – | – | – | 0.359 | 0.291 | – | – | – | – | – | – | – | – |
| NCI-H2009 | – | – | – | – | 0.334 | 0.486 | 0.419 | 0.692 | 0.694 | 0.649 | 0.284 | 0.262 | 0.266 | 0.273 | 1.15 | 1.11 | 0.999 | 0.876 |
| NCI-H2023 | – | – | – | – | 0.431 | 0.463 | 0.456 | 0.533 | 0.488 | 0.44 | 0.523 | 0.639 | 0.541 | 0.577 | 0.932 | 1.07 | 1.26 | 0.717 |
| NCI-H2228 | – | – | – | – | 0.226 | 0.252 | 0.358 | 0.648 | 0.631 | 0.495 | 0.483 | 0.51 | 0.364 | 0.511 | 0.167 | 0.185 | 0.0943 | 0.183 |
| SK-LU-1 | – | – | – | – | 0.5 | 0.514 | 0.328 | 0.407 | 0.361 | 0.341 | 0.498 | 0.437 | 0.375 | 0.518 | 0.206 | 0.183 | 0.212 | 0.206 |
| SK-MES-1 | – | – | – | – | 0.511 | 0.644 | 0.532 | 0.806 | 0.654 | 0.479 | 0.585 | 0.491 | 0.522 | 0.503 | 0.869 | 0.989 | 0.701 | 0.83 |
| SW 1573 | – | – | – | – | 0.32 | 0.391 | 0.369 | 0.539 | 0.502 | 0.474 | 0.535 | 0.598 | 0.532 | 0.614 | 0.257 | 0.213 | 0.24 | 0.217 |
